Results on 1 compound are retold here after paper PMC7606276, “The Antibacterial Effects of New N-Alkylpyridinium Salts on Planktonic and Biofilm Bacteria” (Frontiers in Microbiology, 2020).

Assay [1] concerns Enterococcus faecalis DSM 16431. Description: MBC of planktonic E. faecalis at different initial bacterial densities. It counts as cell-based. Here is the method: The antibacterial susceptibility of planktonic bacteria was determined by the broth microdilution method according to the standard M07-A1 ([CLSI, 2018]) and optimized as described previously ([Marek et al., 2015]; [Dolezal et al., 2016]). All antibacterial compounds were dissolved in dimethyl sulfoxide (DMSO p.a., Sigma-Aldrich, Prague, Czechia). The wells of the 96-well microtiter plates contained 200 μL of Mueller-Hinton broth (MHB, HiMedia, Cadersky-Envitek, Prague, Czechia) with two-fold serial dilutions of the QACs (500–0.49 μmol/L) and were inoculated with 10 μL of exponentially grown bacterial suspension adjusted densitometrically to match 0.5 McFarland scale. […] The MBCs were determined for all prepared compounds as the concentrations that provided ≥99.9% decrease in the bacterial number after subculture of 10 μL aliquots from each microtiter well in a corresponding new microtiter plate where each well contained 200 μL of fresh MHB. The MBC was determined as the lowest concentration which corresponded to a well without visible bacterial growth after a further 24 h of incubation at 35 ± 1°C. To ensure that no bacteria had survived, the content of the well was inoculated on an agar plate to confirm the absence of bacterial growth.
To evaluate the effect of bacterial density on the antibacterial activity of the QACs, E. faecalis suspensions from an overnight culture were prepared in the range from 10^6 to 10^10 CFU/mL in Brain Heart Infusion broth (BHI, VWR International BVBA, Leuven, Belgium) by either diluting or concentrating bacterial suspensions. The MBCs corresponding to E. faecalis suspensions with different initial bacterial densities were determined only for the compound A14 in the concentration range between 500 and 0.49 μM prepared by 2-fold serial dilutions. The MBCs were evaluated as described above after the bacteria were exposed to the QACs for 3 min, 60 min or 24 h. The growth rate of tested E. faecalis suspensions at different initial bacterial densities was monitored every 30 min during 7 h of incubation by measuring the optical density (OD600). The values were fitted with the logistic equation

The subject of assay [2] is E. faecalis plankton and biofilm. The assay is described as follows: Comparison of effectiveness in plankton and biofilm (matched fraction of dead cells). The settings on record: high density E. faecalis suspension 2.4 × 10^9 CFU/mL. It counts as cell-based, Enterococcus faecalis. An excerpt: In plankton suspensions we were able to reach bactericidal concentration for all tested QACs. The situation was quite different in biofilms. The concentrations that work in plankton were not sufficient to kill all bacteria in the biofilm. […] Unfortunately, due to the solubility limit, it was not possible to increase the concentration of the QACs to concentrations that would kill all bacteria in the biofilm. Nevertheless, we can compare the effectiveness in plankton and biofilm if we decrease the concentration of biocide in the plankton to match the fraction of the dead cells in the biofilm. […] The experiment was performed at high density E. faecalis suspensions (2.4 × 10^9 CFU/mL) to mimic the high density of bacteria in a biofilm. By comparing QACs effectiveness at high initial planktonic densities we have largely eliminated the effect of the bacterial density and estimated the effect of biofilm induced changes on QACs sensitivity. One has to be careful, however, as bacterial cells in plankton differ from biofilm not only in cell density but also in cell metabolism and extracellular matrix viscoelasticity. To match the fraction of dead cells in the biofilm, the 10-fold dilution of compounds A14 and B14 were needed, whereas only 4-fold dilution of compound C14 was required. […] The activity of QACs in biofilms relative to plankton was two orders of magnitude […] than usually reported in the literature. Although our biofilms were mature, they were relatively thin (up to 10 μm) which may explain the relatively high efficiency of the QACs against biofilms. Similar observations have been made for S. mutans biofilms, where biofilm cells were only 8 times less susceptible to QACs compared to plankton bacteria ([López Pérez et al., 2017]).

Like-named read-outs stand apart in the source and are kept apart here.

One may read the MBC as the lowest tested concentration that kills the bacteria rather than only halting them. `CCCCCCCCCCCCCC[n+]1ccccc1` [Compound A14]: the MBC is 63 µM in assay [1] (DSM16431, 0.05 h, 3 min exposure, initial CFU/mL 10^6, read-out: MBC 3 min); 63 µM in assay [1] (DSM16431, 0.05 h, 3 min exposure, initial CFU/mL 10^7, read-out: MBC 3 min); 31 to 63 µM in assay [1] (DSM16431, 0.05 h, 3 min exposure, initial CFU/mL 10^8, read-out: MBC 3 min); 250 µM in assay [1] (DSM16431, 0.05 h, 3 min exposure, initial CFU/mL 10^9, read-out: MBC 3 min); above 250 µM in assay [1] (DSM16431, 0.05 h, 3 min exposure, initial CFU/mL 10^10, read-out: MBC 3 min); 31 µM in assay [1] (DSM16431, 1 h, 60 min exposure, initial CFU/mL 10^6, read-out: MBC 60 min). Besides, the MBC in assay [1] (DSM16431, 1 h, 60 min exposure, initial CFU/mL 10^7, read-out: MBC 60 min) was 31 µM; in assay [1] (DSM16431, 1 h, 60 min exposure, initial CFU/mL 10^8, read-out: MBC 60 min) it was 63 µM; in assay [1] (DSM16431, 1 h, 60 min exposure, initial CFU/mL 10^9, read-out: MBC 60 min), 125 µM; in assay [1] (DSM16431, 1 h, 60 min exposure, initial CFU/mL 10^10, read-out: MBC 60 min) it was 250 µM; in assay [1] (DSM16431, 24 h, 24 h exposure, initial CFU/mL 10^6, read-out: MBC 24 h) it was 16 to 31 µM; in assay [1] (DSM16431, 24 h, 24 h exposure, initial CFU/mL 10^7, read-out: MBC 24 h), 16 to 31 µM. Moreover, the MBC was 31 µM in assay [1] (DSM16431, 24 h, 24 h exposure, initial CFU/mL 10^8, read-out: MBC 24 h); 31 to 63 µM in assay [1] (DSM16431, 24 h, 24 h exposure, initial CFU/mL 10^9, read-out: MBC 24 h); 250 µM in assay [1] (DSM16431, 24 h, 24 h exposure, initial CFU/mL 10^10, read-out: MBC 24 h); 2.1e-05 µM in assay [1] (DSM16431, 24 h, after 24 h, 10^6 CFU/ml initial bacterial density, read-out: relative MBC value per bacterial cell); 2.7e-08 µM in assay [1] (DSM16431, 24 h, after 24 h, 10^10 CFU/ml initial bacterial density, read-out: relative MBC value per bacterial cell). Also, in assay [2], the “dilution in plankton needed to match the fraction of dead cells in the biofilm” value came out at 10 fold.
